Experimental data from PubChem BioAssay (NCI).
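GI50 = concentration required for 50% inhibition of growth. The concentration for full growth arrest is given as TGI.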

Columns and labels:
Test in all cases: growth of human tumour cells (NCI), 384-well format
[1] = tested on: MCF7 breast
[2] = tested on: CCRF-CEM leukemia
[3] = tested on: UACC-257 melanoma
[4] = tested on: SF-295 CNS
[5] = tested on: SF-539 CNS
[6] = tested on: NCI-H522 lung
[7] = tested on: SW-620 colon
[8] = tested on: NCI-H23 lung
[9] = tested on: EKVX NSCLC
[10] = tested on: NCI-H322M lung
[11] = tested on: NCI-H226 lung
[12] = tested on: T-47D breast
[13] = tested on: SK-MEL-28 melanoma
[14] = tested on: MDA-MB-231 breast
[15] = tested on: 786-0 renal
[16] = tested on: OVCAR-3 ovarian
[17] = tested on: BT-549 breast
[18] = tested on: RPMI-8226 leukemia
[19] = tested on: SK-MEL-5 melanoma
[20] = tested on: HT29 colon
[21] = tested on: SNB-75 CNS
[22] = tested on: PC-3 prostate
[23] = tested on: UACC-62 melanoma
[24] = tested on: A549 NSCLC
[25] = tested on: M14 melanoma
[26] = tested on: HCC-2998 colon
[27] = tested on: MOLT-4 leukemia
[28] = tested on: OVCAR-5 ovarian
[29] = tested on: MALME-3M melanoma
[30] = tested on: HOP-92 NSCLC
[31] = tested on: A498 renal
[32] = tested on: SK-OV-3 ovarian
[33] = tested on: K-562 leukemia
[34] = tested on: NCI/ADR-RES ovarian
[35] = tested on: KM12 colon
[36] = tested on: MDA-MB-468 breast
[37] = tested on: NCI-H460 NSCLC
[38] = tested on: SF-268 CNS
[39] = tested on: HOP-62 NSCLC
[40] = tested on: TK-10 renal
[41] = tested on: SNB-19 CNS
[42] = tested on: OVCAR-8 ovarian
[43] = tested on: HL-60(TB) leukemia
[44] = tested on: DU-145 prostate
[45] = tested on: IGROV1 ovarian
[46] = tested on: CAKI-1 renal
[47] = tested on: SN12C renal
[48] = tested on: UO-31 renal
[49] = tested on: SR leukemia
[50] = tested on: MDA-MB-435 melanoma
[51] = tested on: HS 578T breast
[52] = tested on: COLO 205 colon
[53] = tested on: HCT-15 colon
[54] = tested on: OVCAR-4 ovarian
[55] = tested on: LOX IMVI melanoma
[56] = tested on: ACHN renal
[57] = tested on: RXF 393 renal

With `CCN(CC)CCCC(C)Nc1c2ccc(Cl)cc2nc2ccc(OC)cc12` (centres undefined) the GI50 [1] was 1410 nM, the TGI [1] was 3200 nM and the GI50 [2] was 609 nM. The TGI [2] was 1660 nM, the GI50 [3] was 1890 nM and the TGI [3] was 3300 nM. For the same compound, the GI50 [4] was 1740 nM, the TGI [4] was 3140 nM and the GI50 [5] was 1120 nM. For the same compound, the TGI [5] was 2330 nM, the GI50 [6] was 1470 nM and the TGI [6] was 2800 nM. The GI50 [7] was 1390 nM, the TGI [7] was 2940 nM and the GI50 [8] was 1600 nM. The TGI [8] was 2960 nM, the GI50 [9] was 1330 nM and the TGI [9] was 2820 nM. It also gave a GI50 [10] of 1290 nM, a TGI [10] of 2630 nM and a GI50 [11] of 1330 nM. For the same compound, the TGI [11] was 2800 nM, the GI50 [12] was 1640 nM and the TGI [12] was 3070 nM. The GI50 [13] was 1870 nM, the TGI [13] was 3270 nM and the GI50 [14] was 1180 nM. The TGI [14] was 2560 nM, the GI50 [15] was 1180 nM and the TGI [15] was 2440 nM. For the same compound, the GI50 [16] was 1760 nM, the TGI [16] was 3360 nM and the GI50 [17] was 1500 nM. The TGI [17] was 2840 nM, the GI50 [18] was 1490 nM and the TGI [18] was 2810 nM. For the same compound, the GI50 [19] was 1960 nM, the TGI [19] was 3380 nM and the GI50 [20] was 1330 nM. It also gave a TGI [20] of 2630 nM, a GI50 [21] of 1330 nM and a TGI [21] of 2610 nM. It also gave a GI50 [22] of 1780 nM, a TGI [22] of 3380 nM and a GI50 [23] of 1690 nM. It also gave a TGI [23] of 3060 nM, a GI50 [24] of 1510 nM and a TGI [24] of 2910 nM. It also gave a GI50 [25] of 1790 nM, a TGI [25] of 3180 nM and a GI50 [26] of 985 nM. The TGI [26] was 2150 nM, the GI50 [27] was 212 nM and the TGI [27] was 357 nM. It also gave a GI50 [28] of 1920 nM, a TGI [28] of 4160 nM and a GI50 [29] of 1600 nM. It also gave a TGI [29] of 2950 nM, a GI50 [30] of 520 nM and a TGI [30] of 1820 nM. It also gave a GI50 [31] of 880 nM, a TGI [31] of 2110 nM and a GI50 [32] of 1200 nM. The TGI [32] was 2700 nM, the GI50 [33] was 1080 nM and the TGI [33] was 2290 nM. It also gave a GI50 [34] of 1550 nM, a TGI [34] of 2940 nM and a GI50 [35] of 1370 nM. It also gave a TGI [35] of 3130 nM, a GI50 [36] of 322 nM and a TGI [36] of 1230 nM. It also gave a GI50 [37] of 1100 nM, a TGI [37] of 2310 nM and a GI50 [38] of 1640 nM. The TGI [38] was 3060 nM, the GI50 [39] was 1100 nM and the TGI [39] was 2440 nM. It also gave a GI50 [40] of 1950 nM, a TGI [40] of 3690 nM and a GI50 [41] of 1940 nM. The TGI [41] was 4030 nM, the GI50 [42] was 1070 nM and the TGI [42] was 2260 nM. For the same compound, the GI50 [43] was 1640 nM, the TGI [43] was 3000 nM and the GI50 [44] was 1720 nM. The TGI [44] was 3530 nM, the GI50 [45] was 1890 nM and the TGI [45] was 3720 nM. The GI50 [46] was 1370 nM, the TGI [46] was 2740 nM and the GI50 [47] was 1410 nM. The TGI [47] was 2860 nM, the GI50 [48] was 1850 nM and the TGI [48] was 3730 nM. For the same compound, the GI50 [49] was 401 nM, the TGI [49] was 1320 nM and the GI50 [50] was 1750 nM. The TGI [50] was 3140 nM, the GI50 [51] was 1710 nM and the TGI [51] was 3080 nM. For the same compound, the GI50 [52] was 1310 nM, the TGI [52] was 2600 nM and the GI50 [53] was 1060 nM. It also gave a TGI [53] of 2300 nM, a GI50 [54] of 1550 nM and a TGI [54] of 2920 nM. For the same compound, the GI50 [55] was 1390 nM, the TGI [55] was 2700 nM and the GI50 [56] was 1040 nM. For the same compound, the TGI [56] was 2440 nM, the GI50 [57] was 668 nM and the TGI [57] was 1980 nM.
